{"source": "patent US7749548B2", "about": "“Composite for the improvement of the smell of the armpit” (Ajou Medics Co., Ltd., priority 2004, dated 2010)", "type_in_all_cases": "in vivo, human", "key": {"[1]": {"test_system": "sweat bromidrosis (axillary odor) of volunteers", "test": "Self-assessment of improvement of armpit odor by individual queries, 4 weeks of spraying twice a day", "settings": "after 4 weeks", "description": "1. Application of Medical Treatment Composition of Example 1\n2) Volunteers are selected from the group who can smell the ordor of sweat bromidrosis by sanitary cotton method and who smell over “mild” class.\n3) Fifteen volunteers who were fitted for the above criteria and smell over “mild” class were selected.\n(§1) Group I Test group with the composition of example 1\n(§2) No one was allowed to use other cosmetics, perfume, and anti-germ soap not to influence any result.\nSubjective judgment of odor degree through individual queries, which include:\n4) degrees of improvement of odor level during the period of application; and\nD) Percentage of Improvement by Self-Assessment\nThe degree of improvement of ordor after 4 weeks were measured by self-assessment. All of 15 persons replied over 50% of improvement in the experimental group, while 10 persons in comparison group expressed positive improvement and four persons' replied negative."}, "[2]": {"test_system": "axillary odor of volunteers with sweat bromidrosis", "test": "Measurement of axillary odor by sanitary cotton, graded by two medical doctors", "description": "1) Sanitary cottons are kept in both armpits for ten minutes by two medical doctors' inspection of armpit odor for classification of 4 grades.\n“minimal” is almost smell-less;\n“mild” is available smell within distance of 15 cm;\n“moderate” is further than distance of 15 cm; and\n“severe” is beyond the distance of 30 cm.\nas §1, §2\nMeasurements of axillary odor were decided according to the smell degree by means of sanitary cotton, which were classified into four (4) grades. Namely, sanitary cottons are kept in both armpits for ten minutes by two medical doctors' inspection of armpit odor for classification of 4 grades as shown in the Table 1:\n(2) Judgment of Results: After two (2) and four (4) weeks of the application of the composition, the odor grades were judged by means of sanitary cottons from both armpits of the participants.\nMeasurement of axillary ordor was carried out by two medical doctors by using sanitary cottons in order to evaluate objectively as shown below"}, "[3]": {"test": "Side-effects reported by the volunteers during the 4-week application", "settings": "4 weeks, twice a day"}, "[4]": {"settings": "sprayed twice a day in armpit, 15 volunteers"}, "[5]": {"settings": "15 volunteers, objective odor grade"}}}
{"smiles": "CCO", "note": "[80% ethanol, ethanol]", "values": [{"measurement": "Persons who expressed positive improvement (self-assessment)", "setting": "[1]; of 15", "result": 10, "unit": "persons"}, {"measurement": "Persons who replied negative (self-assessment)", "setting": "[1]; of 15", "result": "four"}, {"measurement": "Percentage of improvement by self-assessment: Got worse", "setting": "[1]; [4]", "result": "0 (0%) persons (%)"}, {"measurement": "Percentage of improvement by self-assessment: Improved 25%", "setting": "[1]; [4]", "result": "1 (7%) persons (%)"}, {"measurement": "Percentage of improvement by self-assessment: Improved 50%", "setting": "[1]; [4]", "result": "2 (13%) persons (%)"}, {"measurement": "Percentage of improvement by self-assessment: Improved 75%", "setting": "[1]; [4]", "result": "7 (47%) persons (%)"}, {"measurement": "Percentage of improvement by self-assessment: Improved 100%", "setting": "[1]; [4]", "result": "1 (7%) persons (%)"}, {"measurement": "Percentage of improvement by self-assessment: Not applicable", "setting": "[1]; [4]", "result": "4 (27%) persons (%)"}, {"measurement": "Degree of improvement: 1stage of improvement", "setting": "[2]; 15 volunteers, after 4 weeks", "result": "6 (40%) persons (%)"}, {"measurement": "Degree of improvement: 2 stage or more of improvement", "setting": "[2]; 15 volunteers, after 4 weeks", "result": "1 (7%) persons (%)"}, {"measurement": "Degree of improvement: no improvement", "setting": "[2]; 15 volunteers, after 4 weeks", "result": "8 (53%) persons (%)"}, {"measurement": "Initiating period of improvement: After 2 weeks", "setting": "[2]; [5]", "result": "1 (7%) persons (%)"}, {"measurement": "Initiating period of improvement: Not improved", "setting": "[2]; [5]", "result": "8 (53%) persons (%)"}, {"measurement": "Initiating period of improvement: Within 2 weeks", "setting": "[2]; [5]", "result": "6 (40%) persons (%)"}, {"measurement": "Persons who showed improvement of odor grade", "setting": "[2]; after 4 weeks, out of 15", "result": 7, "unit": "persons"}, {"measurement": "Persons among the improved who showed 2 stages or more of improvement", "setting": "[2]; after 4 weeks, listed as Group II", "result": "one and One"}, {"measurement": "Persons among the improved with improvement after two weeks application", "setting": "[2]; after two weeks application", "result": 6, "unit": "persons"}, {"measurement": "Number and percentage of side-effect: No side-effect", "setting": "[3]", "result": "12 (80%) persons (%)"}, {"measurement": "Number and percentage of side-effect: Side effect", "setting": "[3]; slight tingle feel right after application", "result": "3 (20%) persons (%)"}]}
